“Also recorded” adds a separate entry of the source.
Legend:
PEA-13 cells [1] = assay: Internalization and degradation of cell surface-bound 125I-α2M*, PEA-13 cells; format: cell-based, mouse; conditions: PEA-13, pH 6.0, 1 hr at 37° C.
MEF cells [2] = assay: Internalization and degradation of cell surface-bound 125I-ligand, MEF cells; format: cell-based, mouse; conditions: for Cell surface-bound ligand internalized and degraded: MEF
acidic pH binding sites [3] = molecular target: T1, acidic pH binding sites (Mus musculus, UniProt P14824); assay: Specific binding of 125I-ligands to MEF cells at acidic pH; conditions: MEF cells
T1 sequence (P14824 2-673): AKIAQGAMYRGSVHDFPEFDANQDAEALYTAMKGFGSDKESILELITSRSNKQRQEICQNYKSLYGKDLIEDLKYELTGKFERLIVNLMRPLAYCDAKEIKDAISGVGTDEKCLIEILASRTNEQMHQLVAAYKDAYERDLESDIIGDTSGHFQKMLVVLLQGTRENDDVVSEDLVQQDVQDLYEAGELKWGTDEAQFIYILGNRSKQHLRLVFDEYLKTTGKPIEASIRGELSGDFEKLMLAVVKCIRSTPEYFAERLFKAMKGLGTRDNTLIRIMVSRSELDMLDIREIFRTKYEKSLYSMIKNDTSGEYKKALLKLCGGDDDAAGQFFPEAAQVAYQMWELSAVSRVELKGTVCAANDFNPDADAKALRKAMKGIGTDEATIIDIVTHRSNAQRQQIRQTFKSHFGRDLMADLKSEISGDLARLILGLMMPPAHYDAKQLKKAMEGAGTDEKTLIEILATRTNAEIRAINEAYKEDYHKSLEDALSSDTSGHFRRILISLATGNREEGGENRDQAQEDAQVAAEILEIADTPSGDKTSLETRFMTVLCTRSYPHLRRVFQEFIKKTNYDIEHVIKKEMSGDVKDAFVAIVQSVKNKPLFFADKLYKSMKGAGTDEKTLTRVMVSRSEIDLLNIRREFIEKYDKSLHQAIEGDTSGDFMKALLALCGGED

acidic pH binding sites [4] = molecular target: acidic pH binding sites (Neogale vison, UniProt A0A8C7BSJ2); assay: Specific binding of 125I-ligands to Mv1Lu cells at acidic pH; design: species or system mink; conditions: Mv1Lu cells; for pH of optimal/maximal binding: EGTA/BAPTA- or GST-RAP-sensitive binding, 0° C.
Chain of acidic pH binding sites (Neogale vison, UniProt A0A8C7BSJ2) (A0A8C7BSJ2 entry or part of it): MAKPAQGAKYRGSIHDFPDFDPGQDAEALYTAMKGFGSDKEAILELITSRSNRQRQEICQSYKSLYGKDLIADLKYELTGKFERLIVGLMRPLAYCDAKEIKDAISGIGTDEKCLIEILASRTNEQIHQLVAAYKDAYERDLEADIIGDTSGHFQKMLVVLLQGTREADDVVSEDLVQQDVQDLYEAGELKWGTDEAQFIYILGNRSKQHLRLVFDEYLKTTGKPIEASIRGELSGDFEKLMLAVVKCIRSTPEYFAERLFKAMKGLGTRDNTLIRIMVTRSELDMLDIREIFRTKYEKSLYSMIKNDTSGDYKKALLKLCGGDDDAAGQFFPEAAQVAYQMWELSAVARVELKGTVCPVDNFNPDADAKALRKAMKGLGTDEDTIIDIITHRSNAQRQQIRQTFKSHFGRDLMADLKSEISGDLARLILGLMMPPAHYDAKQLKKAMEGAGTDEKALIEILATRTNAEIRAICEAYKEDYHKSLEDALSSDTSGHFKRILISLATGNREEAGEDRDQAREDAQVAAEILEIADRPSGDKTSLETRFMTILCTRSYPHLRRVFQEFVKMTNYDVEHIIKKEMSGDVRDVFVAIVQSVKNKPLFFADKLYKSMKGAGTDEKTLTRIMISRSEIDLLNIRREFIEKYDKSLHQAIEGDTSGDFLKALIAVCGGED

acidic pH binding sites [5] = molecular target: T1, acidic pH binding sites; assay: Specific binding of 125I-ligands to PEA-13 cells at acidic pH; design: endogenous in cells; host or cells: PEA-13 (LRP-1-deficient mouse embryonic fibroblasts); conditions: PEA-13 cells
[6] = system: TβR-V purified from bovine liver plasma membranes; assay: 125I-IGFBP-3 / 125I-TGF-β1 affinity labeling of purified TβR-V; format: binding; conditions: DSS, β1^25(41-65) 20 μM, RAP 10-40 μg/ml, α2M* 100 nM, lactoferrin 100 nM
LRP-1/TβR-V = LRP-1/TβR-V (Homo sapiens, UniProt Q07954); conditions: pH 7.4; read-out: Kd for (high affinity) binding to LRP-1/TβR-V; cited from earlier work
Chain of LRP-1/TβR-V (Q07954 20-4544): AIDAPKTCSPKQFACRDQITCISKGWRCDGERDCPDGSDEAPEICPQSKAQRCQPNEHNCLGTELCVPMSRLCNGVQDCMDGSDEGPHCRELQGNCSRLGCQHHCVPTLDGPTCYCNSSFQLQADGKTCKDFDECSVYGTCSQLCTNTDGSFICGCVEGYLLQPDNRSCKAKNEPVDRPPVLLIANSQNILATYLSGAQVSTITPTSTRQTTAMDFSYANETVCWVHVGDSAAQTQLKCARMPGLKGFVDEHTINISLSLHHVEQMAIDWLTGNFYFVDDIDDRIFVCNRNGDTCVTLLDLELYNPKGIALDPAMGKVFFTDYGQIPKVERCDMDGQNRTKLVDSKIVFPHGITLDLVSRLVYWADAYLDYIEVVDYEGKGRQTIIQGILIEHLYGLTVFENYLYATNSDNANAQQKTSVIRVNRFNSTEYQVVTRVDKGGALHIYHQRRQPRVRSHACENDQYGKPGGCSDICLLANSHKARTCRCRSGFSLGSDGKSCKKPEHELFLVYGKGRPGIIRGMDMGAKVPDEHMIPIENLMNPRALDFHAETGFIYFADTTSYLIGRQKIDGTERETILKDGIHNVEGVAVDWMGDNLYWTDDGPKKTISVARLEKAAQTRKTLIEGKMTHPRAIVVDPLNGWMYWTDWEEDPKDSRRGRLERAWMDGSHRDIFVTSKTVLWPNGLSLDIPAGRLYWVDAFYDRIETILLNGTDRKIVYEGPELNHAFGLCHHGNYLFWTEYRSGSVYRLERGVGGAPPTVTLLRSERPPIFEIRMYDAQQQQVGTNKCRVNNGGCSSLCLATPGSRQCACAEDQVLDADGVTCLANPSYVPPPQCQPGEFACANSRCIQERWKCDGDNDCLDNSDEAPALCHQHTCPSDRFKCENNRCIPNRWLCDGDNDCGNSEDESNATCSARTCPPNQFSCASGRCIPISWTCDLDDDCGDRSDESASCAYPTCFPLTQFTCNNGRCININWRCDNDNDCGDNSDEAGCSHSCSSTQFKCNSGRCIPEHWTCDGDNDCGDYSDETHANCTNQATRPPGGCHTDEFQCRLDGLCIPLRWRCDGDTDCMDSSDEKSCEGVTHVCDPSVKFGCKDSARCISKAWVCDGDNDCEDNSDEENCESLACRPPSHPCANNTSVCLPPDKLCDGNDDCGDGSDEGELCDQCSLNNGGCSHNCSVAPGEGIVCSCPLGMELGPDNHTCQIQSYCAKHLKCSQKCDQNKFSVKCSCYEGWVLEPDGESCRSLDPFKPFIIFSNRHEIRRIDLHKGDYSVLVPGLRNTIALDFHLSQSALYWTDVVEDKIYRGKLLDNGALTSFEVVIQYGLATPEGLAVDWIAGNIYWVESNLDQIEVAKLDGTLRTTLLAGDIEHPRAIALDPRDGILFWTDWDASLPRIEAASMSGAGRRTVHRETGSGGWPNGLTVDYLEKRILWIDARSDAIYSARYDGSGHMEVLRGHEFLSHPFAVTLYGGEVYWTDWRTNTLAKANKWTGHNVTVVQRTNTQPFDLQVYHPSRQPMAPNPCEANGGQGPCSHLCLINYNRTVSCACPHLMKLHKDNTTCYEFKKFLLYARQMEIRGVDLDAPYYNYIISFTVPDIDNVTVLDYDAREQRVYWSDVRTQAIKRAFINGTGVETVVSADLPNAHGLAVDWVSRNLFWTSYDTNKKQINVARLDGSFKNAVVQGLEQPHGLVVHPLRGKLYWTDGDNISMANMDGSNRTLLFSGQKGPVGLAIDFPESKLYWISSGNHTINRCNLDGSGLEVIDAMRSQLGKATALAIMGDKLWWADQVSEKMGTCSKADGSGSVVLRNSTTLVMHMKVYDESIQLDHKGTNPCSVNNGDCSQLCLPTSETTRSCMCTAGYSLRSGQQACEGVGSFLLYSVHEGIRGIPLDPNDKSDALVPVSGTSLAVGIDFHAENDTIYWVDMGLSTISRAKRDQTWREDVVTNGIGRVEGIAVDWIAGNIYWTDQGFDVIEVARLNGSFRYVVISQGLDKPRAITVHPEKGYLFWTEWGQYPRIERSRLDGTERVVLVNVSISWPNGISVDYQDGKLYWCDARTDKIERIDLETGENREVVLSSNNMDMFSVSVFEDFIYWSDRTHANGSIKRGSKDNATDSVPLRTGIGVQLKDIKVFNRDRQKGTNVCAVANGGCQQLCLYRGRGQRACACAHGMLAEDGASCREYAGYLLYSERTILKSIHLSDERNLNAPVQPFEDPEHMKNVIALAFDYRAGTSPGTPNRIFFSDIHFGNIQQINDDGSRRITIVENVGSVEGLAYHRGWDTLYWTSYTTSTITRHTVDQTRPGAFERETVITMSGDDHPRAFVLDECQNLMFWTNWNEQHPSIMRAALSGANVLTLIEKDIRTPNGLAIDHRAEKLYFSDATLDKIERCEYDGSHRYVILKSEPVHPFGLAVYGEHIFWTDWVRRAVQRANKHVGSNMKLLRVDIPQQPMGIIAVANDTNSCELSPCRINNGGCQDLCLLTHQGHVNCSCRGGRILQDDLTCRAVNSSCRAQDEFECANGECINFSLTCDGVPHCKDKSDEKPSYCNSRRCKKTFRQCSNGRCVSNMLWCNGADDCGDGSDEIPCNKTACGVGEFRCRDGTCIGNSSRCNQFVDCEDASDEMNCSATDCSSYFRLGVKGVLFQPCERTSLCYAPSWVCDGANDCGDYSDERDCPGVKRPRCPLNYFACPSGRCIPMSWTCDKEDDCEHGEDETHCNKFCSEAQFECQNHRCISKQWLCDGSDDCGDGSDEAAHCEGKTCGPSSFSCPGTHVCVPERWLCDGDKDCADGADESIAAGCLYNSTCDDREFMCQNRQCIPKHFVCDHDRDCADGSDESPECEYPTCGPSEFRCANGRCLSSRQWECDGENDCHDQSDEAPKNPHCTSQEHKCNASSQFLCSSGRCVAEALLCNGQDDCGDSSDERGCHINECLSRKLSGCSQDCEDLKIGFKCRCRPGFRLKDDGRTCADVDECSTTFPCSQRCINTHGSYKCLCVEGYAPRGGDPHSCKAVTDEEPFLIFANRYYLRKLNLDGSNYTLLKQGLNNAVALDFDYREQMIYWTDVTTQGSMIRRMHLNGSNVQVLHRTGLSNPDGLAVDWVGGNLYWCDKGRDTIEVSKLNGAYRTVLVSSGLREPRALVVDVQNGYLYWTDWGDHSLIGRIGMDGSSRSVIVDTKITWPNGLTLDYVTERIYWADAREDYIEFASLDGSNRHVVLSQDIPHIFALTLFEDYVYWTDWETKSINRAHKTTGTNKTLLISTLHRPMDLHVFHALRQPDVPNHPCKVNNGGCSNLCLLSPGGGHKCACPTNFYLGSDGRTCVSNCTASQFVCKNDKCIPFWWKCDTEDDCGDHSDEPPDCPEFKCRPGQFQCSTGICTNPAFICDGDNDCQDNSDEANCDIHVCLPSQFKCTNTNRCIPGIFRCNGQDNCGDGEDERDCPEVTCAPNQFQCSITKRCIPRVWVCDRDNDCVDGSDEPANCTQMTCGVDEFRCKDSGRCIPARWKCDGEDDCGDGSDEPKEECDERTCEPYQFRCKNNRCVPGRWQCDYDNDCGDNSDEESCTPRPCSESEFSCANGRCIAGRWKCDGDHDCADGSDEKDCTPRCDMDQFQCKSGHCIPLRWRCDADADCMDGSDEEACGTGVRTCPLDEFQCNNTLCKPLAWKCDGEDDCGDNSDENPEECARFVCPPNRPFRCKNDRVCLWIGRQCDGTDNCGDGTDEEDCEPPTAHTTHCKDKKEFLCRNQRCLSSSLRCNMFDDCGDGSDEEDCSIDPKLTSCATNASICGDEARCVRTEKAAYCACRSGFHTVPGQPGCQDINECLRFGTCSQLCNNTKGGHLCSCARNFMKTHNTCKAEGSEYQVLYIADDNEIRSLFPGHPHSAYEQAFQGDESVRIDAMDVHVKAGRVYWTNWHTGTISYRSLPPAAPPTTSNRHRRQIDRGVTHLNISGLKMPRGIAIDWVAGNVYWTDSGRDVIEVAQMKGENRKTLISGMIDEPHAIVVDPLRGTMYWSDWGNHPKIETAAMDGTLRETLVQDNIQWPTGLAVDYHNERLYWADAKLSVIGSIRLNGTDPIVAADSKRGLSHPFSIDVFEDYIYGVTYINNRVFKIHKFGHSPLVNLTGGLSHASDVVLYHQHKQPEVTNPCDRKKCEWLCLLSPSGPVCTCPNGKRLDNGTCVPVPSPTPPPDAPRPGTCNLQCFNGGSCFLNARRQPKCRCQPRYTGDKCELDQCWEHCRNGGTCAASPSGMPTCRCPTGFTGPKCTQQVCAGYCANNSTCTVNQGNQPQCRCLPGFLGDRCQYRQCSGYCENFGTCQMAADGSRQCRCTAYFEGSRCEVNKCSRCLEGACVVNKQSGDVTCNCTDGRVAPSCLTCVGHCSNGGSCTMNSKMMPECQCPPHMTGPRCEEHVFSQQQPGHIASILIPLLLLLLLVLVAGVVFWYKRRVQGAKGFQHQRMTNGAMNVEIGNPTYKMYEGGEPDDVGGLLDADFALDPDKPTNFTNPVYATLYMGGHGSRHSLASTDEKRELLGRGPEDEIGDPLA

LRP-1 = molecular target: T2, LRP-1 (Mus musculus, UniProt Q91ZX7); assay: 125I-α2M* binding to MEF cells at pH 7.4; conditions: pH 7.4; read-out: IC50, inhibition of ^125I-α2M* binding to LRP-1
T2 construct: endogenous in cells; host or cells: MEF (mouse embryonic fibroblasts)

Mv1Lu cells [7] = assay: Internalization and degradation of cell surface-bound 125I-TGF-β1 or 125I-α2M*, Mv1Lu cells; format: cell-based, mink; conditions: 10 μM, pH 7.4, 1 hr at 37° C.
Experimental: After 1 hr at 37° C., the medium was collected and precipitated with 10% trichloroacetic acid (TCA). The TCA-soluble radioactive material in the medium represented the cellular degradation products of 125I-TGF-β1 or 125I-α2M*. The cells were then treated with trypsin (5 mg/ml), maintained for 20 min at 0° C. and centrifuged. The radioactivity in the supernate and cell pellets represented cell surface-bound and internalized 125I-TGF-β1 or 125I-α2M*, respectively. The experiments were performed in quadruplicate.
After 2.5 hr, cells were washed, then warmed to 37° C.

[8] = system: cell surface α2M* receptors; conditions: 30 μM, reversible; cited from earlier work
[9] = system: 32D cells expressing vector only; assay: [methyl-3H] thymidine incorporation, 32D cells transfected with vector only; format: cell-based, murine
H1299/LRP cells [10] = assay: [methyl-3H] thymidine incorporation, H1299/LRP cells; format: cell-based, human; conditions: various concentrations
PEA-13 cells [11] = assay: Cell growth (cell number), PEA-13 cells; format: cell-based, mouse; conditions: TGF-β1 20 pM
Experimental: (§1) FIG. 7 depicts the effect of TGF-β1 on DNA synthesis (A), cell growth (B) and PAI-1 expression (C) in MEF and PEA-13 cells. (A) Cells were treated with various concentrations of TGF-β1 as indicated. DNA synthesis was determined by measuring [methyl-^3H] thymidine incorporation into cellular DNA. The [methyl-^3H] thymidine incorporation in cells treated without TGF-β1 (100,861±3,720 and 103,262±6,722 cpm/well for MEF and PEA-13 cells, respectively) was taken as 0% inhibition. The negative values of inhibition indicate mitogenic activity. […] Each datapoint is the mean±S.D. of quadruplicate determinations. […] Data are representative of six similar experiments. (B) Cells were treated with various concentrations of TGF-β1 as indicated. The cell number was counted after a 4 day incubation. […] The negative values of the inhibition indicate the growth stimulatory activity. Each datapoint is the mean±S.D. of quadruplicate determinations. […] Data are representative of four similar experiments. (C) Cells were treated with various concentrations of TGF-β1 as indicated. The PAI-1 expression in these cells was determined by Northern blot analysis. […] The relative levels of the transcripts were quantified by a PhosphoImager. […]
(§2) Cells were plated at a density of 1-2×10^4 cells/dish in DMEM containing 1% fetal calf serum. The cell number was counted every day or after a 3-day incubation using a hematocytometer. […]

Mv1Lu cells [12] = assay: Cell growth (cell number), Mv1Lu cells; format: cell-based, mink; conditions: TGF-β1 20 pM, 4-day
Experimental: (§3) FIG. 6 depicts the effects of IGFBP-3 and TGF-β1 on DNA synthesis (A), cell growth (B) and PAI-1 expression (C) in Mv1Lu and PEA-C11 cells. (A,B) Cells were incubated with various concentrations of IGFBP-3 (a) or TGF-β1 (b) as indicated. DNA synthesis and cell growth were determined by measuring the [methyl-^3H] thymidine incorporation into cellular DNA after 18 hr incubation (A) and by counting cell number after a 4-day incubation (B), respectively. The [methyl-^3H] thymidine incorporation in cells treated without IGFBP-3 and TGF-β1 (29,170±1,657 and 59,947±7,692 cpm/well for Mv1Lu and PEA-C11 cells, respectively) were taken as 0% inhibition. […] Each data point is the mean±S.D. of quadruplicate determinations. […] Data are representative of eight similar experiments. (C) Cells were incubated with various concentrations of TGF-β1 as indicated. After 2 hr at 37° C., the PAI-1 expression was determined by Northern blot analysis. The expression of glyceraldehyde-3-phosphate dehydrogenase (G3PDH) was used as control. The relative levels of the transcripts were quantified by a Phospholmager. Data are representative of four similar experiments.
(§4) Cells were plated at a density of 1-2×10^4 cells/dish in DMEM containing 1% fetal calf serum. The cell number was counted every day or after a 3-day incubation using a hematocytometer. The assays were performed in quadruplicate.

Mv1Lu cells [13] = assay: [methyl-3H] thymidine incorporation (DNA synthesis), Mv1Lu cells; format: cell-based, mink; conditions: Mv1Lu
MEF cells [14] = assay: [methyl-3H] thymidine incorporation, MEF cells; format: cell-based, mouse; conditions: TGF-β1 20 pM
Experimental: (§5) FIG. 7 depicts the effect of TGF-β1 on DNA synthesis (A), cell growth (B) and PAI-1 expression (C) in MEF and PEA-13 cells. (A) Cells were treated with various concentrations of TGF-β1 as indicated. DNA synthesis was determined by measuring [methyl-^3H] thymidine incorporation into cellular DNA. The [methyl-^3H] thymidine incorporation in cells treated without TGF-β1 (100,861±3,720 and 103,262±6,722 cpm/well for MEF and PEA-13 cells, respectively) was taken as 0% inhibition. The negative values of inhibition indicate mitogenic activity. […] Each datapoint is the mean±S.D. of quadruplicate determinations. […] Data are representative of six similar experiments. (B) Cells were treated with various concentrations of TGF-β1 as indicated. The cell number was counted after a 4 day incubation. […] The negative values of the inhibition indicate the growth stimulatory activity. Each datapoint is the mean±S.D. of quadruplicate determinations. […] Data are representative of four similar experiments. (C) Cells were treated with various concentrations of TGF-β1 as indicated. The PAI-1 expression in these cells was determined by Northern blot analysis. The expression of G3PDH was used as control. The relative levels of the transcripts were quantified by a PhosphoImager. Data are representative of four similar experiments. […]

MEF cells [15] = assay: Cell growth (cell number), MEF cells; format: cell-based, mouse; conditions: TGF-β1 20 pM
Experimental: as §1, §2

PEA-13 cells [16] = assay: [methyl-3H] thymidine incorporation, PEA-13 cells; format: cell-based, mouse; conditions: TGF-β1 20 pM
Experimental: as §5

IRS-2 [17] = assay: 32P metabolic labeling and immunoprecipitation of IRS-2, DR26 cells; format: cell-based, mink
H1299/vector cells [18] = assay: Cell growth (cell number), H1299/vector cells; format: cell-based, human; conditions: TGF-β1 20 pM or IGFBP-3 1 μg/ml, 3-day
PEA-C11 cells [19] = assay: Cell growth (cell number), PEA-C11 cells; format: cell-based, mink; conditions: TGF-β1 20 pM, PEA-C11, 4-day
Experimental: as §3, §4

32D/IR/IRS-2 cells = assay: [methyl-3H] thymidine incorporation, 32D/IR/IRS-2 cells; format: cell-based, murine; conditions: 32D cells expressing IRS-2 and insulin receptor
PEA-C11 cells [20] = assay: [methyl-3H] thymidine incorporation, PEA-C11 cells; format: cell-based, mink; conditions: TGF-β1 20 pM
IRS-2 [21] = assay: 32P metabolic labeling and immunoprecipitation of IRS-2, Mv1Lu cells; format: cell-based, mink; conditions: Mv1Lu; IGFBPs 1 μg/ml; TGF-β1 20 pM
32D/IRS-1 cells = assay: [methyl-3H] thymidine incorporation, 32D/IRS-1 cells; format: cell-based, murine; conditions: 32D cells expressing IRS-1
H1299/vector cells [22] = assay: [methyl-3H] thymidine incorporation, H1299/vector cells; format: cell-based, human; conditions: various concentrations
H1299/LRP cells [23] = assay: Cell growth (cell number), H1299/LRP cells; format: cell-based, human; conditions: TGF-β1 20 pM or IGFBP-3 1 μg/ml, 3-day

## α2M*: α2M activated by methylamine
PEA-13 cells [1]
  Cell surface-bound ligand internalized and degraded: ~70%
MEF cells [2]; pH 6.0, 1 hr at 37° C.
  Cell surface-bound ligand internalized and degraded: ~70%
MEF cells [2]; pH 7.4, 1 hr
  Cell surface-bound ligand internalized and degraded: more than 90%
Acidic pH binding sites [3]
  pH of maximal binding: 5
Acidic pH binding sites [4]; pH 5
  Number of binding sites (Scatchard plot): ~1×10^6 sites/cell
  Saturating concentration of binding: ~120 nM
Acidic pH binding sites [4]; pH 5, read-out: Apparent Kd (Scatchard plot)
  Kd: ~51 nM
Acidic pH binding sites [4]
  pH of optimal/maximal binding: 5
Acidic pH binding sites [5]
  pH of maximal binding: 5
Acidic pH binding sites [5]; acidic pH, read-out: IC50, inhibition of ^125I-α2M* binding
  IC50: ~120 nM
[6]; 0.1 nM 125I-TGF-β1, […] 0° C.
  ^125I-TGF-β1 binding to purified TβR-V: blocked
[6]; 10 nM 125I-IGFBP-3, […] 0° C.
  ^125I-IGFBP-3 binding to purified TβR-V: did not inhibit
LRP-1/TβR-V
  Kd: ~0.075 nM

## CN1CCN(CCCN2c3ccccc3Sc3ccc(C(F)(F)F)cc32)CC1 [trifluoperazine, reference compound]
MEF cells [2]; MEF cells, pH 7.4
  Degradation of cell surface-bound ^125I-α2M* or ^125I-TGF-β1: trifluoperazine-inhibitable degradation
Acidic pH binding sites [3]; pH 5.5, verapamil and W-5 at 100 μM
  Inhibition of ^125I-α2M* binding to cells: most potent inhibitors
LRP-1
  IC50: 25000 to 30000 nM
Mv1Lu cells [7]
  Degradation of cell surface-bound ^125I-TGF-β1 or ^125I-α2M*: completely blocked; also recorded: completely inhibits
[8]
  Depletion of cell surface α2M* receptors: ~50%

## TGF-β1: human transforming growth factor-β1
[9]
  Inhibition of DNA synthesis: minimally or not at all
H1299/LRP cells [10]
  Effect on DNA synthesis: inhibited
PEA-13 cells [11]
  Stimulation of cell growth: ≤ 20%
Mv1Lu cells [12]
  Inhibition of cell growth: 90-100%
Mv1Lu cells [13]; TGF-β1 0.5 pM
  Inhibition of DNA synthesis: ~75%
Mv1Lu cells [13]; TGF-β1 20 pM
  Inhibition of DNA synthesis: 90-100%
Acidic pH binding sites [3]
  pH of maximal binding: 5
MEF cells [14]
  Inhibition of DNA synthesis: 30-40%
MEF cells [15]
  Inhibition of cell growth: 30-40%
Acidic pH binding sites [4]
  pH of optimal/maximal binding: 5
PEA-13 cells [16]
  Stimulation of DNA synthesis: ≤ 20%
IRS-2 [17]; TGF-β1 alone
  32P-labeled phosphorylation of IRS-2: capable of stimulating
IRS-2 [17]; TGF-β1 up to 400 pM
  Dephosphorylation of IRS-2: did not induce dephosphorylation
Acidic pH binding sites [5]
  pH of maximal binding: 5
H1299/vector cells [18]
  Effect on cell growth: acted as mitogens or growth stimulators
PEA-C11 cells [19]
  Inhibition of cell growth: ~70%
LRP-1/TβR-V
  Kd: 0.05 to 0.4 nM
32D/IR/IRS-2 cells
  Growth inhibitory response (DNA synthesis): potent growth inhibitory response
PEA-C11 cells [20]
  Inhibition of DNA synthesis: ~70%
IRS-2 [21]
  Induction of specific dephosphorylation (mobility change) of 32P-labeled IRS-2: inability
32D/IRS-1 cells
  Growth inhibitory response (DNA synthesis): potent growth inhibitory response
H1299/vector cells [22]
  Effect on DNA synthesis: acted as mitogens or growth stimulators
H1299/LRP cells [23]
  Effect on cell growth: inhibited
